The nature of series [1]: Antibiotics remaining after curing, EXP12-formula coating with Irgacure 2959, HPLC peak integration (Example 13). The series is classed as physicochemical. The following applies: cured specimen with drug vs specimen 9, Irgacure 2959, UV-C chamber, curing time 10 mins. The protocol:
All procedures are same as Example 12 except the PTPO is replaced by Irgacure 2959. The curing time was set to 10 mins. The UV source was Ariste UV-C chamber. […]

Series [2] is classed as physicochemical. To be noted: 0.04 mg/cm^2. The protocol: Three pieces, each approximate 4 cm^2, of polypropylene (PP) mesh (density d=107 g/m^2) were cut and weighed to make sure that each piece has same weight. The weight was 42.7 mg for each piece as the actual area was, ca, 42.7 mg/(10.7 mg/cm^2)=4 cm^2. Polyethylene glycol dimethacrylate (PEG DM) (60 mg) was weighed and dissolve the in acetone making the concentration as 100 mg/mL. PTPO (4.5 mg) was weighed and dissolve in acetone making the concentration as 10 mg/mL. 5 μL of PTPO solution (containing 50 ug PTPO) in step and 100 μL of PEG DM solution (containing 10 mg of PEG DM formula, described above) were mixed in a 1.5 mL centrifuge tube so that the PTPO to PEG DM weight ratio was 0.5%. Took preweighed 157 μg of minocycline and 157 μg of rifampin, so that the drug loading was about 0.04 mg/cm^2 in this experiment for each drug. The solutions were transferred onto PP mesh using an automatic pipette while the meshes were held by a plastic clamp. Specimen 4 and 5 were subjected to curing while specimen 6 was chosen as a reference. The thiolene formula loading was 2.5 mg/cm^2 in this experiment. […]
Using direct proportions of peak integration of specimen 6, the concentration of minocycline hydrochloride and rifampin in specimen 5 after curing was determined. […] The antibiotics remaining after curing were calculated as: {(Peak integration of specimen 5)/(peak integration of specimen 6)}×100%

The format of series [3] is physicochemical. To be noted: 0.04 mg/cm^2. The protocol: Mesh was cut into three pieces, each approximate 4 cm^2. Each piece was weighed and it was made sure each piece was 50 mg as the actual area was, ca, 50.0 mg/(10.7 mg/cm^2)=4.7 cm^2. Thiolene formula (60 mg) (thiolene formula contains 67.22 wt % Pentaerythritol tetrakis(3-mercaptopropionate), 32.73 wt % […] Isocyanurate, and 0.05 wt % Hydroquinone:tertbutyl cathetol (1:1 mixture by moles), density is, ca, 1.2 g/mL) was dissolved in acetone aiming for the concentration of 100 mg/mL. […] Made three specimens as shown Table 1. The solutions were transferred onto PP mesh using an automatic pipette while the meshes were held by a plastic clamp. […] The thiolene formula loading was set to 2.5 mg/cm^2 in this experiment. […] HPLC runs of each specimen extract from methanol were performed under the conditions below: • Channel A: 35 mM sodium phosphate monobasic, 1 vol % triethylamine, final pH=7.5 with phosphoric acid • Channel B: acetonitrile • Column temperature=30° C. • Column type: 3×150 mm with 3.5 μm phenyl phase packing • Measurement: absorbance at 280 nm • Solvent flow rate: 1 mL/min • Solvent profile: 0-10 minutes 0-50 vol % Channel B; 10-20 minutes 50 vol % Channel B; 20-25 minutes 50-0 vol % Channel B. The concentration of minocycline hydrochloride and rifampin in specimen 2 after curing were determined using direct proportions of peak area integration of specimen 3. • a. […]
The source holds these as a separate data set.

A short description of series [4]: Drug survival during polymerization and post cure loading, BPDM/NTG-GMA methacrylate coating on DualMesh ePTFE, HPLC of methanol extracts (Example 4). The series is classed as physicochemical. The following applies: drugs in casting solution, theoretical 400 μg/cm^2 each drug, methanol extract. The text has this:
An acetone:ethanol:BPDM solution:NTG-GMA solution in 1:1:1:1 volume ratio was used to coat DualMesh Biomaterial with drugs both present during the polymerization process and loaded into the polymer network after curing had been performed. Circular 0.785 cm^2 samples of DualMesh were coated. In the version were drugs were included in the casting solution, both minocycline hydrochloride and rifampin were incorporated at levels such if no degradation were to have occurred each drug would have been loaded at a bulk surface area density of 400 μg/cm^2. The post-cure loaded version was created by coating the DualMesh with the same amount of polymer coating, and then submerging the specimen in a 5 mL methanol bath containing each drug at 10 mg/mL overnight (˜18 hours) at 4° C. After soaking in the methanol/drug solution, specimens were retrieved from the loading solution and allowed to air dry. Once dried they were passed through two rinse solutions using the following technique: forceps were used to hold specimens while contacting a minimal amount of the surface, vigorously shake the specimen in a 15 mL methanol rinse for 15 seconds, move specimen to a second 15 mL methanol bath and vigorously shake for an additional 15 seconds, and finally allow to air dry. Shaking was performed by moving the forceps back while holding the specimen submerged in the rinse. […]

Series [5] can be described thus: Drug destruction on curing, thiolene coating with PTPO on polypropylene mesh, HPLC of methanol extracts (Example 6). Type of series: physicochemical. The following applies: 0.1 wt % PTPO, halogen dental curing lamp, six coats, theoretical 0.2 mg/cm^2 each drug. The protocol:
1:1:8 weight ratio of monomer (67.22 wt % pentaerythritol tetrakis(3-mercaptopropionate), 32.73 wt % triallyl isocyanurate, and 0.05 wt % hydroquinone:tertbutyl cathetol (1:1 mixture by mole)):methanol:acetone containing minocycline hydrocholoride and rifampin at 50 mg/mL of each drug blend was made. PTPO (BASF P/N 56415733) was added at 0.1 wt %. Polymerization was induced using a halogen dental curing lamp through curing at a distance 2″ from the light guide for 10 seconds on each side of the mesh. Six coats were applied to result in a theoretical loading of 0.2 mg/cm^2 of each drug. HPLC analysis of methanol extracts indicated 72% and 69% destruction of minocycline hydrochloride and rifampin, respectively. High degradation rates may be the result of the phosphine oxide initiator, which could destroy these drugs upon activation.

Series [6] is classed as physicochemical. The following applies: 0.4 mg/cm^2. The method, then:
Three 35.3 mg, 3.24 cm^2 pieces of polypropylene mesh were cut. About 80 mg thiolene formula (67.22 wt % pentaerythritol tetrakis(3-mercaptopropionate), 32.73 wt % triallyl isocyanurate, and 0.05 wt % hydroquinone:tertbutyl cathetol (1:1 mixture by moles), density is, ca, 1.2 g/mL) was weighed and dissolve the formula in acetone aiming for the concentration of 200 mg/mL. Weighed about 2 mg PTPO and dissolved it in acetone aiming for the concentration of 10 mg/mL. Took 8.1 μL of solution of PTPO (which contained 81 ug PTPO) and 81 μL of the thiolene solution (which contained 16.2 mg of thiolene formula) and mixed them in a 1.5 mL centrifuge tube, so that the PTPO to monomer weight ratio was 0.005. The thiolene formula to PP mesh ratio was 5 mg/cm^2. Drugs were dissolved in methanol and drug/methanol solutions were mixed with monomer/acetone solutions such that solvent ratios were at 2:1 acetone:methanol for drug containing specimens (Table 8). Those specimens not containing drug used pure acetone solvents in the coating formulation. […]
The concentration of minocycline hydrochloride and rifampin in specimen 8 was determined using direct proportions of peak area integrations and taking of […] as 100% drug control. […] The antibiotics remaining after curing was calculated as: {(Peak integration of specimen 8)/(peak integration of specimen 9)}×100%

Series [7] in a line: Antibiotics remaining after curing, pentaerythritol tetrakis(3-mercaptopropionate)/PEG DM thiolene coating (EXP12-formula) with PTPO, HPLC peak integration (Example 12). The series is classed as physicochemical. To be noted: specimen 11 vs specimen 9, 0.4 mg/cm^2 each drug, curing time 10 mins. The method, then: All procedures were same as Example 11 except that the thiolene formula was replaced by the following formula (10 g of pentaerythritol tetrakis(3-mercaptopropionate) (from Sigma Aldrich, P #381462, lot #80896TMV) and 21.4 g of polyethylene glycol dimethacrylate (from Sigma Aldrich, P #409510, lot # MKBP0253V) (EXP12-formula). The curing time was set to 10 mins. The two specimens used in curing are shown in the following Table 11. Specimen 9 as discussed in Example 11 was used as a standard.
The top is specimen 9 and the bottom is the cured specimen 11 with drug loading.

Where a name gives a salt, the structure may show the parent alone. Read-outs that look alike come from different tables or passages of the source.

From US10729820B2, “Methods and processes for application of drug delivery polymeric coatings” (Ariste Medical, LLC, priority 2014, dated 2020) come the findings set out here.

As to `CO[C@H]1/C=C/O[C@@]2(C)Oc3c(C)c(O)c4c(O)c(c(/C=N/N5CCN(C)CC5)c(O)c4c3C2=O)NC(=O)/C(C)=C\C=C\[C@H](C)[C@H](O)[C@@H](C)[C@@H](O)[C@@H](C)[C@H](OC(C)=O)[C@@H]1C` [Rifampin, rifampin], the Remaining after curing in series [1] is reported as 85%; in series [2], 97%; in series [3] it was 87%; in series [6], 61%; in series [7], 58%. In series [4], the “average drug survival during the polymerization process” value is reported as 79%. In addition, the destruction of drug in series [5] was 69%.
As for `CN(C)c1ccc(O)c2c1C[C@H]1C[C@H]3[C@H](N(C)C)C(O)=C(C(N)=O)C(=O)[C@@]3(O)C(O)=C1C2=O` [Minocycline, minocycline hydrochloride], the Remaining after curing in series [1] was 85%; in series [2], 76%; in series [3], 88%; in series [6], 64%; in series [7], 54%.
